One compound from BindingDB's records for patent US20240343747 (Accro Bioscience (HK), 2024) can be followed below.

Common to all, as to assay: Competitive Binding Assay
In assay [1] the target is T1, Tyrosine-protein kinase JAK1 [837-1142] (Homo sapiens, UniProt P23458).
T1 construct: 837-1142
The procedure: (§1) The lysates were centrifuged and filtered to remove cell debris. The remaining kinases were produced in HEK-293 cells and subsequently tagged with DNA for qPCR detection. Streptavidin coated magnetic beads were treated with biotinylated small molecule ligands for 30 minutes at room temperature to generate affinity resins for kinase assays. The liganded beads were blocked with excess biotin and washed with blocking buffer (SeaBlock (Pierce), 1% BSA, 0.05 % Tween 20, 1 mM DTT) to remove unbound ligand and to reduce non-specific binding. […] Test compounds were prepared as 111X stocks in 100% DMSO. Dissociation constants (Kds) were determined using an 11-point 3-fold compound dilution series with three DMSO control points. All compounds for Kd measurements are distributed by acoustic transfer (non-contact dispensing) in 100% DMSO. The compounds were then diluted directly into the assays such that the final concentration of DMSO was 0.9%. All reactions performed in polypropylene 384-well plate. Each was a final volume of 0.02 ml. The assay plates were incubated at room temperature with shaking for 1 hour and the affinity beads were washed with wash buffer (1×PBS, 0.05% Tween 20). The beads were then re-suspended in elution buffer (1×PBS, 0.05% Tween 20, 0.5 μM nonbiotinylated affinity ligand) and incubated at room temperature with shaking for 30 minutes. The kinase concentration in the eluates was measured by qPCR.

Assay [2] addresses T2, Non-receptor tyrosine-protein kinase TYK2 [575-869] (Homo sapiens, UniProt P29597).
T2 construct: 575-869
Here is the method: as §1

The target in assay [3] is T3, Tyrosine-protein kinase JAK2 [808-1132] (Homo sapiens, UniProt O60674).
T3 construct: 808-1132
T3 sequence (O60674 798-1132): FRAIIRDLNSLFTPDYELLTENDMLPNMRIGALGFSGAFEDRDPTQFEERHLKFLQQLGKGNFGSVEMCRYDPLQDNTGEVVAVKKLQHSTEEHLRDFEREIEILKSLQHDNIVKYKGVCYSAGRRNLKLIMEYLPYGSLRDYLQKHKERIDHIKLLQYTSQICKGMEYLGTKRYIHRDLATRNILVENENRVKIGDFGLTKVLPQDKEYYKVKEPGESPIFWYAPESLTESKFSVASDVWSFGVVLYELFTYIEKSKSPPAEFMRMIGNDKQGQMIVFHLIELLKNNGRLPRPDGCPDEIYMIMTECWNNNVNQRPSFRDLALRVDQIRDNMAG
The procedure: as §1

T1 sequence (P23458 837-1142): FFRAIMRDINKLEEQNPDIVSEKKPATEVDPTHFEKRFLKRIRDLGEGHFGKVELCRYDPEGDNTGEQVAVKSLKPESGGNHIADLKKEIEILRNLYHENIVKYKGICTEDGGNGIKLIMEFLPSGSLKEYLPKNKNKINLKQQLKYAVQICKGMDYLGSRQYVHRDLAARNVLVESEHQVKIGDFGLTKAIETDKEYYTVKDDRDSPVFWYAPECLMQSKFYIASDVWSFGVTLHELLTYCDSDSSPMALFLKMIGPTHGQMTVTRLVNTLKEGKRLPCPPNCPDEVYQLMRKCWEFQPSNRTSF
T2 sequence (P29597 575-869): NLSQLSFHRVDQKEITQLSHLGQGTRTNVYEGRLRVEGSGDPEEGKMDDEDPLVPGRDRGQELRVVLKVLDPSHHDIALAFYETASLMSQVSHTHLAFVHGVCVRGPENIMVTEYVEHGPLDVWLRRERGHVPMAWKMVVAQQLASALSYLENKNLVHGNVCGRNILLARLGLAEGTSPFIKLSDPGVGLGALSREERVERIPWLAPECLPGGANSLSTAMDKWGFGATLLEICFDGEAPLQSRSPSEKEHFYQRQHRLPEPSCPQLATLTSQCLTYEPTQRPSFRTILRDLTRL

Broadly, the Kd is the equilibrium constant for the complex coming apart. Take `[2H]C([2H])([2H])NC(=O)c1nnc(NC(=O)C2CC2)cc1Nc1cccc(-c2cc(P(=O)(C3CC3)C3CC3)n(C)n2)c1OC` [US20240343747, Example B41]: the Kd in assay [1] is above 30 µM; in assay [2], 0.014 nM; in assay [3], above 30 µM.
